In brackets after ≈: the same amount, converted by molar mass. Where a SMILES comes first, the peptide text is derived from it. Bridges are numbered along the chain shown (N, C = ends). Where no end group is shown, it is not given here. [ ]: non-standard residue; d: D form. The star is where a group is joined. X1 = CC[C@H](C)CCCCC(=O)*; Dab = NCC[C@H](N)C(=O)O
Tests used:
[1] = tested on: S. aureus JE2 atpA mutant (atpA::ΦNΣ); experiment: Bacterial cell survival assay (CFU after 2 h exposure in NaPi); type: cell-based, Staphylococcus aureus; conditions: for difference in susceptibility / survival between atpA mutant and WT (in words): 2 h exposure at the concentrations highlighted in Fig. 1a
Procedure: (§1) From overnight cultures of S. aureus JE2 and mutants, 10 μl was diluted into 990 μl fresh TSB medium in a falcon tube and grown for 2 h for the cells to reach early exponential phase. After 2 h the cultures were re-suspended in 10 mM sodium phosphate buffer (pH 7.4), termed NaPi (Medicago, Sweden). Cells were subsequently diluted in NaPi to approximately 5 × 10^5 CFU/ml, and combined with antimicrobial peptides and resveratrol when indicated, to a final volume of 100 µl and incubated in 96-well plates with shaking for 2 h at 37 °C. Bacteria were plated for CFU on TSA plates. Following overnight incubation at 37 °C for 24 h, viable cells were enumerated and relative cell survival was calculated as CFUwith peptide/CFUwithout peptide at 2 h post-exposure.

[2] = tested on: S. aureus JE2 atpG mutant (atpG::ΦNΣ); experiment: as above; type: cell-based, Staphylococcus aureus; conditions: hBD4 5 µM
Procedure: as §1

[3] = tested on: S. aureus JE2 atpB mutant (atpB::ΦNΣ); experiment: as above; type: cell-based, Staphylococcus aureus; conditions: hBD4 5 µM
Procedure: as §1

[4] = tested on: S. aureus JE2 menD mutant (menD::ΦNΣ); experiment: as above; type: cell-based, Staphylococcus aureus; conditions: hBD4 5 µM
Procedure: as §1

[5] = tested on: S. aureus JE2; experiment: Two-fold broth microdilution MIC in TSB; type: cell-based; conditions: Staphylococcus aureus, JE2, 24 h
Procedure: The minimum inhibitory concentration for resveratrol was determined using a two-fold broth microdilution assay in TSB (100 µl) with an initial inoculum of approximately 5 × 10^5 cells/ml.

[6] = tested on: S. aureus JE2 (WT); experiment: Bacterial cell survival assay (CFU after 2 h exposure in NaPi); type: cell-based, Staphylococcus aureus
Procedure: as §1

[7] = tested on: atpA^+ (allelic exchange of transposon insertion with intact atpA gene); experiment: Etest MIC on TSA; type: cell-based, Staphylococcus aureus; conditions: 37 °C, 24 h
Procedure: (§2) The MIC for polymyxin B was determined using Etest (bioMérieux, France) in the absence and in the presence of sub-inhibitory concentrations (0.0625x–0.25 × MIC) of resveratrol or menadione (1 µg/ml, Sigma). From overnight cultures, strains were diluted to approximately 10^8 CFU/ml and then distributed on TSA plates using a sterile cotton swab.

[8] = tested on: menD::ΦNΣ; experiment: Etest MIC on TSA; type: cell-based, Staphylococcus aureus; conditions: 37 °C, 24 h
Procedure: as §2

[9] = tested on: atpA::ΦNΣ; experiment: Etest MIC on TSA; type: cell-based, Staphylococcus aureus; conditions: 37 °C, 24 h
Procedure: as §2

[10] = tested on: S. aureus JE2; experiment: Etest MIC on TSA; type: cell-based, Staphylococcus aureus; conditions: 37 °C, 24 h
Procedure: as §2

[11] = tested on: opsonized S. aureus JE2 WT in human neutrophils; conditions: 1 h incubation, MOI 1, opsonized with 10% normal human serum; mean of at least seven replicates; without DPI 49.9%
Procedure: (§3) Blood was collected from healthy adult volunteers and written informed consent was given. Isolation of neutrophils was performed following the procedure described in[36]. All methods were carried out in accordance with relevant guidelines and regulations. The institutional review board (IRB) of the University of Tübingen approved the study and all adult subjects provided informed consent. This study was done in accordance with the ethics committee of the medical faculty of the University of Tübingen that approved the study, Approval number 015/2014 BO2. Briefly, heparinized blood was diluted 1:1 (v/v) with PBS containing 0.5% BSA and 2 mM EDTA and layered onto a gradient of Biocoll (density, 1.077 g/ml; Biochrom) and Histopaque (density, 1.119 g/ml; Sigma). After centrifugation for 20 min at 380×g, neutrophils were collected from the Histopaque phase. Cells were subjected to a brief hypotonic shock with ultrapure-water containing 155 mM ammonium chloride, 1 mM potassium hydrogen carbonate and 0.1 mM EDTA at pH 7.4, washed, and suspended at 2.5 × 10^6 cells/ml in RPMI containing […] HSA, 2 mM glutamine, 2 mM sodium pyruvate and 10 mM HEPES.
(§4) Starter cultures of S. aureus JE2 and its respective atpA mutant were grown in TSB medium overnight.

[12] = tested on: opsonized S. aureus JE2 atpA mutant in human neutrophils; conditions: 1 h incubation, MOI 1, opsonized with 10% normal human serum; mean of at least seven replicates; without DPI 39.2%
Procedure: as §3, §4

In the case of “hBD3: human β-defensin 3 (Innovagen) (GIINTLQKYYCRVRGGRCAVLSCLPKEEQIGKCSTRGRKCCRRKK; ends and bridges not checked; cysteine pairing not given here; UniProt P81534 23-67, looked up)”, the “difference in susceptibility / survival between atpA mutant and WT (in words)” value [1] is reported as “no differences”.
With “hBD4: human β-defensin 4 (Innovagen) (EFELDRICGYGTARCRKKCRSQEYRIGRCPNTYACCLRKWDESLLNRTKP; ends and bridges not checked; cysteine pairing not given here; UniProt Q8WTQ1 23-72, looked up)” the “susceptibility of atpG mutant compared with WT” value [2] was “increased susceptibility”, the “susceptibility of atpB mutant compared with WT” value [3] was “increased susceptibility” and the “difference in susceptibility / survival between atpA mutant and WT (in words)” value [1] was “more susceptible”. For the same molecule, the “greater reduction in viable cells of atpA mutant compared with WT” value ([1]; 2 h exposure, concentrations of Fig. 1a (5 µM)) was 63 fold and the “reduction in viable cell count of menD mutant” value [4] was “no reduction in viable cell count”.
With “LL-37 (LLGDFFRKSKEKIGKEFKRIVQRIKDFLRNLVPRTES; Antibacterial peptide LL-37; UniProt P49913 134-170, looked up) [human antimicrobial peptide of the cathelicidin family (Isca Biochemicals)]” the “difference in susceptibility / survival between atpA mutant and WT (in words)” value [1] was “minor increase in bactericidal activity”.
`Oc1ccc(/C=C/c2cc(O)cc(O)c2)cc1` [resveratrol] was tested, and the MIC [5] was 256 µg/mL (≈ 1120 µM), the “increase in killing of WT S. aureus compared with hBD4 alone” value ([6]; resveratrol 32 µg/ml in combination with hBD4 5 µM) was 20 fold and the “impact on S. aureus viability” value ([6]; resveratrol alone at sub-inhibitory concentration 0.125 × MIC (32 µg/ml)) was “no impact”.
histatin-5 was tested, and the “difference in susceptibility / survival between atpA mutant and WT (in words)” value [1] was “minor increase in bactericidal activity”.
With “hBD1: human β-defensin 1 (Innovagen) (DHYNCVSSGGQCLYSACPIFTKIQGTCYRGKAKCCK; ends and bridges not checked; cysteine pairing not given here; UniProt P60022 33-68, looked up)” the “difference in susceptibility / survival between atpA mutant and WT (in words)” value [1] was “no differences”.
In the case of `CC[C@H](C)CCCCC(=O)N[C@@H](CCN)C(=O)N[C@H](C(=O)N[C@@H](CCN)C(=O)N[C@H]1CCNC(=O)[C@H]([C@@H](C)O)NC(=O)[C@H](CCN)NC(=O)[C@H](CCN)NC(=O)[C@H](CC(C)C)NC(=O)[C@@H](Cc2ccccc2)NC(=O)[C@H](CCN)NC1=O)[C@@H](C)O` [polymyxin B] (X1-[Dab]T[Dab][Dab][Dab][dF]L[Dab][Dab]T; lactam 4-C (inferred); N-terminus assumed), the MIC [7] is reported as 96 µg/mL (≈ 79.8 µM), the MIC ([8]; TSA + menadione (1 µg/ml)) is reported as 192 µg/mL and the MIC ([8]; TSA) is reported as greater than 1024 µg/mL. The MIC [9] was 16 µg/mL (≈ 13.3 µM), the “Polymyxin B MIC” value ([10]; TSA + 0 µg/ml resveratrol) was 128 µg/mL and the “Polymyxin B MIC” value ([10]; TSA + 16 µg/ml resveratrol) was 64 to 96 µg/mL. The “Polymyxin B MIC” value ([10]; TSA + 32 µg/ml resveratrol) was 48 µg/mL, the “Polymyxin B MIC” value ([10]; TSA + 64 µg/ml resveratrol) was 24 µg/mL and the MIC ([10]; TSA) was 128 µg/mL (≈ 106 µM).
For `c1ccc2c(c1)[I+]c1ccccc1-2` [DPI, diphenyleneiodonium], the “surviving WT cells in DPI-treated neutrophils, percentage of initial counts” value [11] was 91.4% and the “surviving atpA cells in DPI-treated neutrophils, percentage of initial counts” value [12] was 74.3%.
